{"source": "patent US10548855B2", "about": "“Memantine combinations and use” (CHASE PHARMACEUTICALS CORPORATION, priority 2016, dated 2020)", "origin": "cited, not measured here", "system": "mice", "details": "water maze, 2 mg/kg", "data": [{"smiles": "CC12CC3CC(C)(C1)CC(N)(C3)C2", "note": "[memantine, 3,5-dimethyladamantan-1-amine]", "values": [{"measurement": "effect on scopolamine-induced learning deficits", "value": "reverses scopolamine-induced learning deficits"}]}]}
